Experimental data published in US10150736B2, “Haptens and immunoreactive agents and use thereof for producing family antibodies and immunoassays for quinolones” (Consejo Superior de Investigaciones Cientificas (CSIC), priority 2010, dated 2018).
In brackets after ≈: the same amount, converted by molar mass.

Columns and labels:
Assay type in all cases: binding, rabbit
[1] = tested on: antibodies developed with immunoreactive agents described herein; experiment: Determination of cross-reactivity by ELISA; details: for % CR (cross-reactivity): (DI50 CPFX/DI50 of tested compounds)×100; for IC50: competitive ELISA, antiserum and immunoreactive agent not named
Procedure: (§1) Microtiter plates were coated with corresponding coating antigen (indirect format) or antiserum (direct format) dissolved in coating buffer (100 μL/well) overnight at 4° C. or during 4 hours at room temperature and covered with airtight adhesive plates. Subsequently, plates were washed with PBST (four times, 300 μL/well) and quinolone patters were added (0.01 nM-10000 nM, in PBST, 50 μL/well) followed by the corresponding antiserum (indirect format) or enzymatic tracer (direct format) (50 μL/well) in microtiter plates. After 30 minutes at room temperature, plates were washed as described above and, in the case of indirect format, a solution of antilgG rabbit IgG labelled with HRP (1/6000 in PBST) (100 μl/well) was added and incubated for 30 minutes at room temperature. Plates were washed again, and for both formats, substrate solution was added (100 μL/well). Color development was stopped after 30 minutes at room temperature with […] (50 μL/well), and absorbance was read at 450 nm. Standard curves were adjusted to a four parameter equation, using the following formula: Y−[(A−B)/1−[x/C)D]+B, where A represents maximum absorbance, B represents minimum absorbance, C represents the concentration producing 50% of maximum absorbance, and D represents the tangent at the inflection point of sigmoid curve.
Stock solutions were prepared at a concentration of […] for different quinolones and other antibiotics in sodium hydroxide ([…]) and measured by ELISA. Cross-reactivity values were calculated according to the equation below: (DI50 CPFX/DI50 of tested compounds)×100.

antiserum (As) 171 [2] = experiment: Competitive ELISA for ciprofloxacin, antiserum 171 with HRP conjugate I31 (enzymatic tracer); details: As 171 dilution 1/8000; IR I31 0.0625 μg/mL
Procedure: Immunization protocol was conducted in female white rabbits from New Zealand weighing 1-2 Kg, as described previously (Salvador, Analytical Chemistry. 2007, 79, 3734-3740). Immunogens (100 μg) dissolved in PBS (0.5 mL) were emulsified with Freund's adjuvant, completely the first time and the remainder incompletely, in 1:1 ratio. They were rapidly injected intradermally in different places of the host animal back (one injection per month). Antibody titers evolution was assessed by measuring serial dilutions binding of different antiserum in microtiter plates coated with the corresponding immunoreactive agent. […]
Microtiter plates were coated with corresponding coating antigen (indirect format) or antiserum (direct format) dissolved in coating buffer (100 μL/well) overnight at 4° C. or during 4 hours at room temperature and covered with airtight adhesive plates. […] Color development was stopped after 30 minutes at room temperature with […] (50 μL/well), and absorbance was read at 450 nm. Standard curves were adjusted to a four parameter equation, using the following formula: Y−[(A−B)/1−[x/C)D]+B, where A represents maximum absorbance, B represents minimum absorbance, C represents the concentration producing 50% of maximum absorbance, and D represents the tangent at the inflection point of sigmoid curve.

antiserum (As) 172 = experiment: Competitive ELISA for ciprofloxacin, antiserum 172, coating antigen (indirect format)
Procedure: (§2) Immunization protocol was conducted in female white rabbits from New Zealand weighing 1-2 Kg, as described previously (Salvador, Analytical Chemistry. 2007, 79, 3734-3740). Immunogens (100 μg) dissolved in PBS (0.5 mL) were emulsified with Freund's adjuvant, completely the first time and the remainder incompletely, in 1:1 ratio. They were rapidly injected intradermally in different places of the host animal back (one injection per month). Antibody titers evolution was assessed by measuring serial dilutions binding of different antiserum in microtiter plates coated with the corresponding immunoreactive agent. After observing an acceptable antibody titer, animals were bled to death and their blood was collected in Vacutainer tubes fitted with a serum separating gel. Antiserum were obtained by centrifugation and stored at −80° C. in the presence of 0.02% NaN3.
as §1, with “Plates were washed again, and for both formats, substrate solution was added (100 μL/well).” left out

antiserum (As) 171 [3] = experiment: Competitive ELISA for ciprofloxacin, antiserum 171, coating antigen (indirect format)
Procedure: as §2
as §1, with “Plates were washed again, and for both formats, substrate solution was added (100 μL/well).” left out

antiserum (As) 173 = experiment: Competitive ELISA for ciprofloxacin, antiserum 173, coating antigen (indirect format)
Procedure: as §2
as §1, with “Plates were washed again, and for both formats, substrate solution was added (100 μL/well).” left out

Row | IC50 [1] [μg-L^−1] | Compound | % CR (cross-reactivity) [1] [%] | further results
1 | 0.77 ± 0.27 | O=C(O)c1cn(C2CC2)c2cc(N3CCNCC3)c(F)cc2c1=O [Ciprofloxacin] | 100 | IC50 (antiserum (As) 171 [2]): 0.00081 µg/mL (≈ 0.00244 µM); IC50 (antiserum (As) 172; As 172 dilution 1/4000, IR I16 2.5 μg/mL): 0.03839 µg/mL (≈ 0.116 µM); IC50 (antiserum (As) 172; As 172 dilution 1/4000, IR I26 0.25 μg/mL): 0.01156 µg/mL (≈ 0.0349 µM); IC50 (antiserum (As) 172; As 172 dilution 1/32000, IR I19 0.0156 μg/mL): 0.0276 µg/mL (≈ 0.0833 µM); IC50 (antiserum (As) 171 [3]; As 171 dilution 1/16000, IR I16 2.5 μg/mL): 0.0164 µg/mL (≈ 0.0495 µM); IC50 (antiserum (As) 171 [3]; As 171 dilution 1/16000, IR I26 0.25 μg/mL): 0.00166 µg/mL (≈ 0.00501 µM); IC50 (antiserum (As) 171 [3]; As 171 dilution 1/128000, IR I19 0.0156 μg/mL): 0.00481 µg/mL (≈ 0.0145 µM); IC50 (antiserum (As) 173; As 173 dilution 1/16000, IR I16 5 μg/mL): 0.13468 µg/mL (≈ 0.406 µM); IC50 (antiserum (As) 173; As 173 dilution 1/16000, IR I26 0.25 μg/mL): 0.00149 µg/mL (≈ 0.0045 µM); IC50 (antiserum (As) 173; As 173 dilution 1/128000, IR I19 0.0156 μg/mL): 0.04855 µg/mL (≈ 0.147 µM)
2 | 4.30 | CN1CCN(c2c(F)cc3c(=O)c(C(=O)O)cn4c3c2OCN4C)CC1 [Marbofloxacin] | 28 | –
3 | 0.78 | CCn1cc(C(=O)O)c(=O)c2cc(F)c(N3CCNCC3)cc21 [Norfloxacin] | 81 | –
4 | 0.65 | CCN1CCN(c2cc3c(cc2F)c(=O)c(C(=O)O)cn3C2CC2)CC1 [Enrofloxacin] | 95 | –
5 | 0.91 | CN1CCN(c2cc3c(cc2F)c(=O)c(C(=O)O)cn3-c2ccc(F)cc2)CC1 [Difloxacin] | 75 | –
6 | 3.91 | CC1CCc2cc(F)cc3c(=O)c(C(=O)O)cn1c23 (stereo not drawn) [Flumequine] | 22 | –
7 | 0.96 | O=C(O)c1cn(-c2ccc(F)cc2)c2cc(N3CCNCC3)c(F)cc2c1=O [Sarafloxacin] | 80 | –
8 | 7.31 | CN1C[C@@H]2C[C@H]1CN2c1cc2c(cc1F)c(=O)c(C(=O)O)cn2C1CC1 [Danofloxacin] | 8 | –

More lines, now with the values behind:

Row | Compound | IC50 [1] [μg-L^−1] | % CR (cross-reactivity) [1] [%] | further results
9 | O=C(N[C@H](CO)[C@H](O)c1ccc([N+](=O)[O-])cc1)C(Cl)Cl [Chloramphenicol] | >1000 | <0.2 | –
10 | Cc1cc(C)nc(NS(=O)(=O)c2ccc(N)cc2)n1 [Sulfamethazine] | >1000 | <0.2 | –
11 | Nc1ccc(S(=O)(=O)Nc2nccs2)cc1 [Sulfathiazole] | >1000 | <0.2 | –
12 | CC1(C)S[C@@H]2[C@H](NC(=O)[C@H](N)c3ccccc3)C(=O)N2[C@H]1C(=O)O [Ampicillin] | >1000 | <0.2 | –
13 | CCn1cc(C(=O)O)c(=O)c2cc3c(cc21)OCO3 [Oxolinic acid] | 23.53 | 4 | –
